From PubChem BioAssay (NCI)
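Interpolation was linear, between the two tested concentrations surrounding the appropriate level; five concentrations were tested over 48 hours in 96-well plates. At the GI50, growth is halved. TGI: total growth inhibition.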

Tests used:
Assay in all cases: growth of human tumour cells (NCI), 48 h
COLO 205 colon = system: COLO 205 colon
UACC-62 melanoma = system: UACC-62 melanoma
HCC-2998 colon = system: HCC-2998 colon
EKVX NSCLC = system: EKVX NSCLC
SF-539 CNS = system: SF-539 CNS
KM12 colon = system: KM12 colon
NCI-H522 lung = system: NCI-H522 lung
CAKI-1 renal = system: CAKI-1 renal
T-47D breast = system: T-47D breast

SMILES	TGI (COLO 205 colon) [µM]	TGI (UACC-62 melanoma) [µM]	TGI (HCC-2998 colon) [µM]	TGI (EKVX NSCLC) [µM]	TGI (SF-539 CNS) [µM]	TGI (KM12 colon) [µM]	TGI (NCI-H522 lung) [µM]	TGI (CAKI-1 renal) [µM]	TGI (T-47D breast) [µM]	GI50 (COLO 205 colon) [µM]	GI50 (UACC-62 melanoma) [µM]	GI50 (HCC-2998 colon) [µM]	GI50 (EKVX NSCLC) [µM]	GI50 (SF-539 CNS) [µM]	GI50 (KM12 colon) [µM]	GI50 (NCI-H522 lung) [µM]	GI50 (CAKI-1 renal) [µM]	GI50 (T-47D breast) [µM]
c1coc(-c2nccc3c2[nH]c2ccccc23)c1	33.5	> 100	> 100	> 100	> 100	> 100	> 100	> 100	> 100	–	–	–	–	–	–	–	–	–
O=C(c1ccccc1)N1CCN(C(=S)NC2CCCCC2)C1=S	34	35.6	33.1	38.3	27.7	30.9	30.6	62.4	53.1	–	–	–	–	–	–	–	–	–
O=c1ccc2ccc(CBr)cc2o1	–	23.1	9.53	5.94	13.9	–	2.55	2.89	5.76	–	–	–	–	–	–	–	–	–
CCn1c2nc(=O)n(CCCCCCCCSC(c3ccccc3)(c3ccccc3)c3ccccc3)c(=O)c-2nc2ccccc21	–	–	19.6	> 100	> 100	> 100	> 100	> 100	> 100	–	–	–	–	–	–	–	–	–
Cn1cnc(N2CCCC2)c(C#N)c1=S	> 100	> 100	> 100	> 100	> 100	> 100	> 100	> 100	> 100	–	–	–	–	–	–	–	–	–
CN(C)Cc1c(O)ccc2c1c1c(n2C)C(=O)c2ccccc2C1=O	40	18.2	13.9	> 100	> 100	23.9	20.8	70.3	> 100	–	–	–	–	–	–	–	–	–
Cc1c(C(=O)O)n2c(=S)[nH]nc2c2ccccc12	> 100	> 100	> 100	> 100	> 100	> 100	> 100	> 100	> 100	–	–	–	–	–	–	–	–	–
CCOC(=O)/C=C/C(=O)O/C=C/[N+](=O)[O-]	> 100	> 100	> 100	> 100	> 100	> 100	> 100	78.1	> 100	–	–	–	–	–	–	–	–	–
Cn1c(-c2ccc[se]2)ccc1-c1ccc(C=O)[se]1	> 49.4	–	> 53.5	> 100	23	> 100	35.2	0.738	12.4	–	–	–	–	–	–	–	–	–
CCOP(=O)(CCCC(O)CNc1nc(N)nc(Cl)c1N=Nc1ccc(Cl)cc1)OCC (stereo not drawn)	20.4	19.1	30.6	15.5	23	25	17	13.9	23.2	–	–	–	–	–	–	–	–	–
Cc1ccc(Cc2cc(N3CCN(c4cccc(Cl)c4)CC3)nnc2C)cc1	73.8	> 100	–	> 100	> 100	> 100	81.5	> 100	> 100	–	–	–	–	–	–	–	–	–
CC(C)C(Nc1ncnc2nc[nH]c12)C(=O)O (stereo not drawn)	> 100	> 100	–	> 100	–	> 100	> 100	> 100	> 100	–	–	–	–	–	–	–	–	–
C/C=C1/CN2CCC34c5ccccc5N(C)C23C2CC1C4(C(=O)OC)C(OC(C)=O)O2 (stereo not drawn)	> 100	> 100	> 100	> 100	> 100	> 100	> 100	> 100	> 100	–	–	–	–	–	–	–	–	–
CCOC(=O)c1c(NS(=O)(=O)c2ccc(C)cc2)sc2c1CCCC2	37.9	56.5	–	98.7	> 100	93.8	–	> 100	> 100	–	–	–	–	–	–	–	–	–
COC1=C[C@]2(CCC(=O)O2)[C@@H]2Cc3ccccc3[C@H](O)[C@@H]2C1=O	> 100	65.1	> 100	> 100	–	> 100	44.4	> 100	37.7	–	–	–	–	–	–	–	–	–
C[C@@]1(CCCCCCCCCCc2ccccc2)C[C@@]2(C)OC(=O)C[C@H]2OO1	3.37	4.35	3.41	7.2	2.58	38.6	4.12	> 84.1	7.32	–	–	–	–	–	–	–	–	–
Cc1cc2cc3cc(C)c(N)cc3nc2cc1N	1.98	2.3	–	1.47	–	2.03	1.7	2.64	2.43	–	–	–	–	–	–	–	–	–
O=c1c2c3c(sc2nc2n1N=CN(c1ccccc1)C2)CCCC3	> 100	> 100	> 100	> 100	–	> 100	> 100	> 100	> 100	–	–	–	–	–	–	–	–	–
CC(=O)OCC1OC(N2C(=O)NC(=O)C3C=C4CCCCC4=CC32)CC1OC(C)=O (stereo not drawn)	–	> 100	–	> 100	> 100	> 100	> 100	–	> 100	–	–	–	–	–	–	–	–	–
COC(=O)Nc1nc2ccc(S(=O)(=O)Nc3ccccn3)cc2[nH]1	> 100	> 100	–	> 100	52.6	> 100	> 100	> 100	> 100	–	–	–	–	–	–	–	–	–
COc1ccccc1NC(=S)N=Nc1c(O)[nH]c2ccccc12	> 100	> 100	> 100	> 100	> 100	> 100	> 100	> 100	> 100	–	–	–	–	–	–	–	–	–
Cc1nnc(N)nc1/C=C\c1ccc(Cl)cc1Cl	55.8	> 100	42.8	> 100	–	32.6	57.5	> 100	> 100	–	–	–	–	–	–	–	–	–
COc1cc(C2c3cc4c(cc3OC(NNC(N)=O)C2C)OCO4)cc(OC)c1OC (stereo not drawn)	0.613	> 100	> 27.2	99.7	0.165	> 100	0.344	> 100	> 100	–	–	–	–	–	–	–	–	–
O=C1c2cc(I)ccc2N2CCN=C2N1Cc1ccccc1	> 100	–	–	> 100	> 100	> 100	> 100	> 100	> 100	–	–	–	–	–	–	–	–	–
CCC(=O)Nc1cccc(N=Cc2ccc(OC(=O)/C=C\c3ccccc3)cc2)c1	> 75	> 75	> 75	> 75	> 75	> 75	> 75	> 75	37.7	–	–	–	–	–	–	–	–	–

SMILES	TGI (COLO 205 colon) [µM]	TGI (UACC-62 melanoma) [µM]	TGI (HCC-2998 colon) [µM]	TGI (EKVX NSCLC) [µM]	TGI (SF-539 CNS) [µM]	TGI (KM12 colon) [µM]	TGI (NCI-H522 lung) [µM]	TGI (CAKI-1 renal) [µM]	TGI (T-47D breast) [µM]	GI50 (COLO 205 colon) [µM]	GI50 (UACC-62 melanoma) [µM]	GI50 (HCC-2998 colon) [µM]	GI50 (EKVX NSCLC) [µM]	GI50 (SF-539 CNS) [µM]	GI50 (KM12 colon) [µM]	GI50 (NCI-H522 lung) [µM]	GI50 (CAKI-1 renal) [µM]	GI50 (T-47D breast) [µM]
C=C(C)[C@@H](O)[C@H](O)C[C@H](C)C1CC[C@]2(C)C1=CC[C@@H]1[C@@]3(C)CC[C@@H](OC(C)=O)C(C)(C)[C@@H]3C[C@@H](OC3OC(COC(C)=O)C(O)C(O)C3O)[C@]12C (stereo partly drawn)	3.39	4.52	1.69	12.3	11.7	2.95	3.55	11.8	8.51	–	–	–	–	–	–	–	–	–
CCC(C)(C)c1cc(O)c(C(C)(C)CC)cc1O	5.28	6.84	5.36	14.6	9.23	12.6	6.03	7.74	19.5	2.42	2.28	2.3	2.54	2.7	3.52	1.98	2.44	4.56
CSc1ncc2c(n1)-c1ccccc1OC2N1CCOCC1 (stereo not drawn)	> 100	> 100	–	> 100	> 100	> 100	> 100	> 100	80.3	–	–	–	–	–	–	–	–	–
Fc1ccc(-c2sc(-c3ccsc3)cc2Cc2ccsc2)cc1	> 10	> 10	> 10	> 10	–	> 10	–	> 10	> 10	–	–	–	–	–	–	–	–	–
O=c1[nH]c(=O)c2ncn(-c3ccc([N+](=O)[O-])cn3)c2[nH]1	> 100	> 100	> 100	> 100	> 100	> 100	–	> 100	> 100	–	–	–	–	–	–	–	–	–
COC(C/C(=C/CO[Si](C(C)C)(C(C)C)C(C)C)C(=O)N(C(=O)OC(C)(C)C)c1ccccc1I)OC	> 100	> 100	> 100	–	–	> 100	18.3	> 100	> 100	–	–	–	–	–	–	–	–	–
Cc1c(Cc2ccccc2)n(C(C)OCCN(OC(=O)Oc2ccccc2)C(=O)Oc2ccccc2)c(=O)[nH]c1=O (stereo not drawn)	34.9	30.5	31.5	30.4	37.4	29.9	29.3	33.9	–	–	–	–	–	–	–	–	–	–
CC(=O)C1=C(C)O[C@@H]2O[C@H](COCc3ccccc3)[C@@H](OCc3ccccc3)[C@H](O)[C@@H]2S1	54.5	31.8	–	82.8	42.2	38.1	30.9	> 100	21.5	–	–	–	–	–	–	–	–	–
COc1cc(C2S/C(=C/c3ccccc3)C(=O)N2Cc2ccccc2)cc(OC)c1OC (stereo not drawn)	> 100	> 100	69.4	> 100	–	> 100	62.8	> 100	41.1	–	–	–	–	–	–	–	–	–
O=C(NC(=S)Nc1ccc([N+](=O)[O-])cc1)c1ccc2c(c1)Sc1ccccc1O2	> 100	> 100	–	–	> 100	> 100	> 100	> 100	> 100	–	–	–	–	–	–	–	–	–
Cc1cc2c(c(C(=O)NCC(=O)N[C@@H](C)C(=O)OCc3ccccc3)c1)Oc1c(cc(C)cc1C(=O)NCC(=O)N[C@@H](C)C(=O)OCc1ccccc1)S2	> 100	> 100	> 100	> 100	–	> 100	–	> 100	6.28	–	–	–	–	–	–	–	–	–
Cc1cc2nc3c(C#N)c4c(c(Nc5ccc(F)cc5)n3c2cc1C)CCC4	> 100	> 100	–	> 100	> 100	> 100	> 100	> 100	> 100	–	–	–	–	–	–	–	–	–
O=c1[nH]c2ccccc2c(O)c1Cc1ccccc1	> 100	–	> 100	> 100	> 100	> 100	> 100	> 100	–	–	–	–	–	–	–	–	–	–
Cc1ccc(S(=O)(=O)N2CCC[C@@H]2C(=O)O[C@@H]2CCC3CC=CC32)cc1 (stereo partly drawn)	31.2	> 100	> 100	> 100	> 100	> 100	50.8	–	> 100	–	–	–	–	–	–	–	–	–
COC(=O)CNC(=O)C(Cc1ccccc1)NC(=O)c1ccc(-c2ccc(Cl)cc2Cl)o1 (stereo not drawn)	30.2	65.1	–	78.6	> 100	91.2	43.3	77.6	> 100	–	–	–	–	–	–	–	–	–
CC(C)=CC1C(C(=O)Oc2ccccc2C(C)C)C1(C)C (stereo not drawn)	–	> 100	33.4	36.5	–	38.9	35.5	> 100	50.3	–	–	–	–	–	–	–	–	–
COC1/C=C/C=C(/C)Cc2cc(O)c(Cl)c(c2)N(C)C(=O)CC(OC(=O)C(C)C)C2(C)OC2C(C)C2CC1(O)NC(=O)O2 (stereo not drawn)	0.0104	> 100	–	> 100	–	–	< 0.01	> 100	> 100	–	–	–	–	–	–	–	–	–
Nc1nc(Cl)cc(OCC2(CO)CCCC2)n1	–	–	> 100	> 100	> 100	–	> 100	–	–	–	–	–	–	–	–	–	–	–
Clc1cc(-c2ccccc2)nc(Nc2nc3ccccc3[nH]2)n1	51	35.4	–	49.5	> 100	> 100	33.1	3.95	> 100	–	–	–	–	–	–	–	–	–
Cc1ncc([N+](=O)[O-])n1CC[N+](C)([O-])CCCCn1ccnc1[N+](=O)[O-] (stereo not drawn)	> 100	> 100	–	> 100	> 100	> 100	> 100	> 100	> 100	–	–	–	–	–	–	–	–	–
COC(=O)c1c(O)ccc2c1c1cc3ccccc3cc1n2Cc1cc(OC)cc(OC)c1	> 36.1	> 100	> 100	> 100	–	> 27.1	0.415	> 28.4	> 63.4	–	–	–	–	–	–	–	–	–
CN(C)CN1CSC(=S)N(CN(C)C)C1	–	> 100	> 100	> 100	–	> 100	> 100	> 100	> 100	–	–	–	–	–	–	–	–	–
CSc1cc(Cl)c(C)cc1S(=O)(=O)NC(=O)NNc1ccc(F)cc1	> 100	–	> 100	> 100	> 100	> 100	> 100	> 100	> 100	–	–	–	–	–	–	–	–	–
CC(C)(C)NC1=NC(C(F)(F)F)(C(F)(F)F)NC(=O)N1	–	> 100	79	> 100	> 100	> 100	–	> 100	> 100	–	–	–	–	–	–	–	–	–
